From patent EP4417201A1, “PHARMACEUTICAL COMPOSITIONS FOR USE IN CANCER TREATMENT” (Robert Bosch Gesellschaft für medizinische Forschung mbH, priority 2023, dated 2024)

Target: T1, purified porcine tubulin (Sus scrofa, UniProt P02550+P02554)
T1 construct: purchased Cytoskeleton, Denver, CO, USA BK006P
Assay: Tubulin polymerization assay
Type: biochemical
Conditions: 10 µM, absorbance at 340 nm, 35°C
Procedure: A tubulin polymerization assay kit (part# BK006P, Cytoskeleton, Denver, CO, USA) was used to address the direct effects of chemical compounds on tubulin polymerization dynamics. A porcine >99% pure tubulin preparation (3 mg/ml) free of microtubule-associated proteins in 80 mM PIPES pH 6.9, 2 mM MgCl2, 0.5 mM EGTA, 1 mM GTP, and 10.2% glycerol was incubated with Formula A-1 (100 µM), Formula A-2(100 µM), paclitaxel (10 µM), or buffer. Microtubule polymerization was initiated by tubulin addition; changes in microtubule turbidity were measured kinetically at 340 nm at 35°C (EnSpire Multimode Plate Reader 2300, PerkinElmer).
To determine whether the influence of compounds of Formula A-1 and Formula A-2 on microtubule formation was due to on-target activity, the direct effect of chalcone compounds of Formula A on tubulin polymerization rates was examined by incubation of purified porcine tubulin with Formula A-1 or Formula A-2 and comparison of the results with those of paclitaxel, a well-established microtubule-stabilizing agent. Microtubule formation was measured kinetically at an absorbance of 340 nm.

T1 sequence (P02550 whole entry): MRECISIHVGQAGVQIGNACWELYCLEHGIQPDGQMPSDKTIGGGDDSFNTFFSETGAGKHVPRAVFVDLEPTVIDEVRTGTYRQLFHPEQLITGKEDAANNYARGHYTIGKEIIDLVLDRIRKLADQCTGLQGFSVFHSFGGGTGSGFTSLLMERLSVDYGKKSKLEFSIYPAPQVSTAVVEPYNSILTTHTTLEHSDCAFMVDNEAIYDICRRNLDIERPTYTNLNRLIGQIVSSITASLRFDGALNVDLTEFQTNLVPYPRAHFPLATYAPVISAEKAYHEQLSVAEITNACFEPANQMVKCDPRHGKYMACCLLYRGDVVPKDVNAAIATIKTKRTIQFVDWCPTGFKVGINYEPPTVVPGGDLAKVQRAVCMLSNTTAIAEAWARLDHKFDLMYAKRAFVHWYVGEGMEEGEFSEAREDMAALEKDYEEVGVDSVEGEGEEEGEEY
T1 sequence (P02554 whole entry): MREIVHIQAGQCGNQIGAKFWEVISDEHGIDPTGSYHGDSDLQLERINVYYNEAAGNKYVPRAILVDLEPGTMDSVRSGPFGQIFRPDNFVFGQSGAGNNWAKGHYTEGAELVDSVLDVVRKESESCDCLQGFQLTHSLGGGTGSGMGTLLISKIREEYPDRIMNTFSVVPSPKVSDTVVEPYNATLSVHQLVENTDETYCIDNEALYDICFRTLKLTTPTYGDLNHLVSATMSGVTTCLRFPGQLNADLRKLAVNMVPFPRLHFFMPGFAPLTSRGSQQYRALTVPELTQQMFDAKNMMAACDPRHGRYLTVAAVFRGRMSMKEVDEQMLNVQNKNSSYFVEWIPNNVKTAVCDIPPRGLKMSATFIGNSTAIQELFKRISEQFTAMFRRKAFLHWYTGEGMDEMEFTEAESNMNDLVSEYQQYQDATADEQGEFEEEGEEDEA

CC(=O)O[C@H]1C(=O)[C@@]2(C)[C@H]([C@H](OC(=O)c3ccccc3)[C@]3(O)C[C@H](OC(=O)[C@H](O)[C@@H](NC(=O)c4ccccc4)c4ccccc4)C(C)=C1C3(C)C)[C@]1(OC(C)=O)CO[C@@H]1C[C@@H]2O [paclitaxel]
tubulin polymerization: the kinetics of tubulin polymerization is enhanced and the polymerization equilibrium shifts towards polymerized tubulin
